Earlier results in US20240158375A1, “COMPOUNDS AND METHODS FOR THE TREATMENT OF OCULAR DISORDERS” (Azura Ophthalmics Ltd., priority 2020, published 2024).

Tests used:
[1] = tested on: murine DS model; details: Invest. Ophthalmol. Vis. Sci. (2015) 56(10), 5888-5895
[2] = biological target: integrin α4 (Homo sapiens, UniProt P05556+P13612); details: Ravensberg et al, Allergy (2006) 61, 1097-1103
Sequence of integrin α4 (P13612 34-1032, species assumed): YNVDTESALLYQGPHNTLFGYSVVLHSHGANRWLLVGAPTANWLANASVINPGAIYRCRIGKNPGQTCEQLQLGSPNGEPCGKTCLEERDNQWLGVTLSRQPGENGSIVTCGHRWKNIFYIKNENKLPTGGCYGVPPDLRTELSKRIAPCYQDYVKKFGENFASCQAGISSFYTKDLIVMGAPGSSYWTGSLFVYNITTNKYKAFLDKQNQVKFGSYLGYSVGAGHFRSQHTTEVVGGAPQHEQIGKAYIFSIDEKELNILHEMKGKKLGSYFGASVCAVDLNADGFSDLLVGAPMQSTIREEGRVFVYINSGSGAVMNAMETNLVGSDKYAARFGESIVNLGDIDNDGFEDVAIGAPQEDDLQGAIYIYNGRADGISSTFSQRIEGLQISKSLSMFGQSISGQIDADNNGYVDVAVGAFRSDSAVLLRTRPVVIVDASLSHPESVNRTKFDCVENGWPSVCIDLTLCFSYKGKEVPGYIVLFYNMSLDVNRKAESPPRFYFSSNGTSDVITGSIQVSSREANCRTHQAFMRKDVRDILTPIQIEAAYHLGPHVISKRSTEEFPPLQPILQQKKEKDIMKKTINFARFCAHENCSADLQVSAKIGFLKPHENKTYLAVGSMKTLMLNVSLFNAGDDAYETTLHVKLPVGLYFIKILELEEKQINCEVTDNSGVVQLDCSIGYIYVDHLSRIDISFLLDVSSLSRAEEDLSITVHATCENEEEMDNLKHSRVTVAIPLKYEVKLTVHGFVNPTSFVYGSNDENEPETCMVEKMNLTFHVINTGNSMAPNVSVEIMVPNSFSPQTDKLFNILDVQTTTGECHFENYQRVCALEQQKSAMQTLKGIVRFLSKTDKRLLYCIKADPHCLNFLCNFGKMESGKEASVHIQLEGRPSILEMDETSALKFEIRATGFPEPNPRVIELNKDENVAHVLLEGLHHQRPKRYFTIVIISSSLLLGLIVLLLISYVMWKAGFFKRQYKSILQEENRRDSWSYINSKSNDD
Sequence of integrin α4 (P05556 21-798, species assumed): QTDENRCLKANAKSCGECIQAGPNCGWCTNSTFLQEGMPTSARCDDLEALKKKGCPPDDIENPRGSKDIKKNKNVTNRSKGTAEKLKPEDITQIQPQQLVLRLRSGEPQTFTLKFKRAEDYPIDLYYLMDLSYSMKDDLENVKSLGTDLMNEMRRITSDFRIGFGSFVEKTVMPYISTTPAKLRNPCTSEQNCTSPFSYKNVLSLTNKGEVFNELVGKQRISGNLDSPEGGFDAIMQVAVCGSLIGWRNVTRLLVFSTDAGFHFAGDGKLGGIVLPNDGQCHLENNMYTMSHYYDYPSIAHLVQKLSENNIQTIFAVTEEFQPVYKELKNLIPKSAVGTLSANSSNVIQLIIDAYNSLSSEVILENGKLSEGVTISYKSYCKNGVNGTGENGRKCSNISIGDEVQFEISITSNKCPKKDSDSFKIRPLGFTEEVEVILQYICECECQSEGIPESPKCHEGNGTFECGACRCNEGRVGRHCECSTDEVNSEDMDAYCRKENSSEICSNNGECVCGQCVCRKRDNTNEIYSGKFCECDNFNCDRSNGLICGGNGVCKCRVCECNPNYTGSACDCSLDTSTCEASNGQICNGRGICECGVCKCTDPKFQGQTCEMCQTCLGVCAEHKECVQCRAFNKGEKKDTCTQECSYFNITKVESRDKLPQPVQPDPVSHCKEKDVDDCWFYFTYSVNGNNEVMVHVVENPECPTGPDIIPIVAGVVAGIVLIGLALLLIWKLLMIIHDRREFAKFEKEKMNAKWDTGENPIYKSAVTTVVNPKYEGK

integrin α4 antagonist activity [2]: potent integrin a4 antagonist
Compound: Cc1ccccc1OCC(=O)N[C@@H](CC(C)C)C(=O)N[C@@H](Cc1ccc(OC(=O)N2CCC(C(N)=O)CC2)cc1)C(=O)O [(S)-3-(4-((4-carbamoylpiperidine-1-carbonyl)oxy)phenyl)-2-((S)-4-methyl-2-(2-(o-tolyloxy)acetamido)pentanamido)propanoic acid]
objective signs of dry eye [1]: improvements in objective signs of dry eye
